According to US10709764B2, “Use of compounds with thrombopoietic activity to promote bone growth and healing” (Osteofuse, Inc., priority 2010, dated 2020):

What was measured:
[1] = tested on: C57BL/6 bone marrow macrophages (BMMs); assay: Osteoclast formation from bone marrow macrophages cultured with M-CSF and RANKL, TRAP staining; type: cell-based, mouse
Protocol: FIG. 2. Bar graph showing C57BL/6 bone marrow macrophages (BMMs) were cultured with M-CSF (30 ng/ml) and RANKL (50 ng/ml). While culturing C57BL/6 BMMs with M-CSF and RANKL (no TPO) results in the generation of mature TRAP^+ multinucleated osteoclasts (OCs) (>3 nuclei), culturing these cells with TPO (0.1-100 ng/ml) enhances the number OCs by >2-fold. *p<0.05
FIG. 3A. Representative micrograph of cultures of BMMs stimulated with M-CSF (30 ng/ml) and RANKL (50 ng/ml).
FIG. 3B. Representative micrograph of cultures of BMMs stimulated with M-CSF (30 ng/ml) and RANKL (50 ng/ml).

[2] = tested on: critical sized defect in the rat femur; assay: Long Evans rat femur gap model, scaffold in 5 mm segmental defect; type: in vivo, Long Evans rats
Description: A pilot study utilizing the Long Evans rat femur gap model which has been approved by the Laboratory Animal Care and Usage Committee (IACUC) at Indiana University was used to test a new method for repairing bone gaps. In brief, tube shape scaffolds with 4 mm external diameter, 2 mm internal diameter and 5 mm in height were manufactured from poly(propylene) fumarate/tricalcium phosphate. […] In the control group, the scaffolds were left untreated (n=3/group). Segmental defects of 5 mm were created in the right femurs of male Long Evans rats. The defect was filled with a 5 mm scaffold and secured with an intramedullary K-wire placed in retrograde fashion. Femurs were imaged by x-ray to assure proper placement and integrity of the scaffold. The rats were then imaged using x-ray at three week intervals to assess continued healing. At post-operative weeks 6 and 15, rats were euthanized and femurs analyzed by x-ray, microCT, and histology.
At 15 weeks, mineralized callus was seen bridging the two bone ends. In some areas adjacent to the scaffolds, isolated patches of cartilage with hypertrophic chondrocytes were observed, indicating the tissues were undergoing endochondral bone formation.

[3] = tested on: critical sized femoral defect; assay: Mouse critical sized femoral defect with scaffold, x-ray follow-up; type: in vivo, C57BL/6 male mice
Description: A critical sized femoral defect was created in the right femur of ten-week old C57BL/6 male mice. Our scaffold was inserted into the defect site. […] Referring now to FIG. 6, a critical sized femoral defect was created in the right femur of ten week old C57BL/6 male mice. A scaffold was inserted into the defect site.

In the case of thrombopoietin [TPO], the “mature multinucleated OCs developed (TRAP staining)” value ([1]; TPO 100 ng/ml, M-CSF 30 ng/ml, RANKL 50 ng/ml) was “Significantly more OCs developed”, the “enhancement of the number of mature TRAP+ multinucleated osteoclasts (OCs)” value ([1]; TPO 0.1-100 ng/ml, M-CSF 30 ng/ml, RANKL 50 ng/ml, vs no TPO, p<0.05) was greater than 2 fold and the increase of osteoclastogenesis ([1]; osteoclast progenitors treated with TPO in vitro) was “up to 5 fold”. For the same substance, the “healing of critical sized defect (microCT)” value ([2]; 10 μg in scaffold, post-operative week 15, n=3/group) was “robustly healed”, the “cortex and trabeculae of the callus compared to callus induced by BMP-2” value ([2]; 10 μg in scaffold, week 15, BMP-2 from an earlier study) was “thicker” and the “remodeling compared with BMP-2” value ([2]; 15 weeks post-operative, μCT (FIG. 5)) was “more extensive remodeling”. For the same substance, the “bridging callus formation (x-ray)” value ([3]; 2 weeks postoperatively, TPO 1 μg, BMP-2 4 μg in scaffold) was “remain unbridged”, the “bridging callus formation (x-ray)” value ([3]; 4-6 weeks postoperatively, TPO 1 μg in scaffold) was “have bridged” and the “restoration of bone contour compared with BMP-2 scaffolds” value ([3]; 4-6 weeks, TPO 1 μg vs BMP-2 4 μg) was “better restores the original contour of the bone”.
